Test results: patent US7005417B1, “Echinocandin derivatives, method for preparing same and use as antifungal agents” (Aventis Pharma S.A., priority 1999, dated 2006)

System: Glucan Synthase of Candida albicans
Assay: Inhibition of the Glucan Synthase of Candida albicans
Type: biochemical
Settings: Candida albicans membranes, 14C-UDP glucose, 25° C. for 1 hour
Description: A—Inhibition of the Glucan Synthase of Candida albicans
Candida albicans membranes were purified according to the process described by Tang et al Antimicrob. Agents Chemother 35, 99–103, 1991. 22.5 μg of membrane proteins are incubated in a mixture of 2 Mm of 14C-UDP glucose (specific activity=0.34 mCi./mmol, 50 μg of α-amylase, 1 Mm of dithiotreitol (DTT), 1 Mm EDTA, 100 Mm NaF, 7 μM of GTP-γ-S, 1 M of sucrose and 50 Mm of Tris-HCL (pH 7.8) in a volume of 100 μl. The medium is incubated at 25° C. for 1 hour and the reaction is terminated by adding TCA at a final concentration of 5%. The reaction mixture is transferred onto a pre-humidified glass fibre filter. The filter is washed, dried and its radioactivity is counted.
Mulundocandine is used as a positive control.
Control of the vehicle is carried out with the same quantity of 1% DMSO.

## 1-[4-[(2-aminoethyl)amino]-N2-[[4-[5-[4-pentyloxy)-phenyl]-3-isoxazolyl]-phenyl]-carbonyl]-L-ornithine]-4-(4-hydroxyphenyl)-L-threonine]-5-L-serine-echinocandine B [Example 1]
  Inhibition of the Glucan Synthase of Candida albicans: good activity
